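All cell lines were grown in 96-well plates and treated with compound for 48 hours. TGI marks complete inhibition of growth.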

Test in all cases: growth of human tumour cells (NCI), 48 h
Test [1] deals with HCT-116 colon.
The subject of test [2] is OVCAR-5 ovarian.
Test [3] deals with HOP-92 NSCLC.
In test [4] the test system is RPMI-8226 leukemia.
Test [5] concerns M14 melanoma.
Test [6] deals with DU-145 prostate.
Test [7] deals with KM12 colon.
For test [8], the system named is NCI-H460 lung.
The subject of test [9] is HT29 colon.
Test [10] relates to EKVX NSCLC.

In the case of `CC1=NN(c2nc(N)nc(CN3CCOCC3)n2)C(C)(C)C1`, the TGI in test [1], in [2], in test [3], in test [4], in [5] and in test [6] was > 100 µM in each case. Also, the TGI in [7], in test [8], in [9] and in test [10] was > 100 µM throughout.
As to `N#CC12C(=O)N3C(=NC(c4ccco4)NC3c3ccco3)C1(C#N)C(c1ccco1)NC1=C2CCCC1` (stereo not given), the TGI in test [1], in [2], in test [3], in test [4], in test [5] and in test [6] was > 100 µM throughout. Also, the TGI in test [7], in test [8], in test [9] and in test [10] was > 100 µM throughout.
Turning to `O=C(O)c1ccccc1C(=O)NCC1S(=O)(=O)OCCOS1(=O)=O`, the TGI in test [1], in test [2], in [3], in test [4], in test [5] and in test [6] was > 100 µM each time. Moreover, the TGI in test [8], in test [9] and in test [10] was > 100 µM in each case.
Regarding `c1csc(-c2nn3c(C45CC6CC(CC(C6)C4)C5)nnc3s2)c1`, the TGI in [1], in test [2], in [3], in test [4], in test [5] and in [6] was > 100 µM throughout. The TGI in test [8], in test [9] and in test [10] was > 100 µM in each case.
For the compound `COc1ccc(C(=O)C#Cc2cn(C3CC(O)C(CO)O3)c(=O)[nH]c2=O)cc1` (stereo not given), the TGI was > 100 µM in test [1]; 45.9 µM in test [3]; > 100 µM in [4]; 75 µM in [5]; > 100 µM in test [6]; > 100 µM in [7]. The TGI in [8], in test [9] and in test [10] was > 100 µM in each case.
Consider `CC[C@]12C=CCN3CC[C@@]4(c5cc(N=O)c(OC)cc5N(C)[C@H]4[C@@](O)(C(=O)OC)[C@@H]1OC(C)=O)[C@@H]32`, for which the TGI in test [1], in [2], in test [3], in [5], in [6] and in [7] was > 100 µM in each case. The TGI in test [8], in test [9] and in test [10] was > 100 µM in each case.
Regarding `CN1C(=O)C2(C)SC1(c1ccccc1)C1C(=O)N(c3ccccc3)C(=O)C12` (stereo not given), the TGI in test [1], in test [2], in test [3], in test [4], in test [5] and in test [6] was > 100 µM each time. Further, the TGI in test [7], in [9] and in test [10] was > 100 µM throughout.
`COc1ccccc1Nc1nc2c([nH]1)c(=O)n(C)c(=O)n2C`: the TGI in [3], in test [4], in [5], in test [6], in [7] and in [9] was > 10 µM each time. Further, the TGI in test [10] is > 10 µM.
On to `COc1ccc(N=c2oc3ccccc3cc2C(N)=O)cc1`, for which the TGI in [1], in test [3], in [4], in test [5], in [6] and in [7] was > 100 µM throughout. Also, the TGI in [8], in [9] and in test [10] was > 100 µM in each case.
Consider `CC(C)CC(NC(=O)C(C)(CI)Cc1ccccc1)C(=O)Nc1ccccc1` (stereo not given), for which the TGI in test [1], in test [2], in [3], in test [4], in test [5] and in test [6] was > 100 µM in each case. Also, the TGI in test [7], in test [8] and in [10] was > 100 µM in each case.
For `CCOC(=O)C(C(=O)OCC)=C1SC(=Nc2ccccc2)C(=Nc2ccccc2)N1c1ccccc1`, the TGI in test [1], in test [2], in test [3], in test [4], in test [6] and in test [7] was > 100 µM each time. Besides, the TGI in test [8], in [9] and in [10] was > 100 µM in each case.
`CCOC(=O)c1nc2cc(C(F)(F)F)ccc2nc1Oc1ccc(C#N)cc1`: the TGI in test [1], in test [2], in test [3], in [4], in test [5] and in test [6] was > 100 µM each time. For the same compound, the TGI in test [7], in test [8] and in [10] was > 100 µM each time.
In the case of `CSC12c3cc(C)n(-c4ccc([N+](=O)[O-])cc4)c3CC(C)(C)CN1C(=O)C2Oc1ccccc1` (stereo not given), the TGI in [1], in [2], in test [3], in test [4], in test [5] and in test [6] was > 100 µM in each case. Further, the TGI in test [7], in [8] and in test [10] was > 100 µM each time.
For the compound `CC(=O)c1nc2ccccc2n1C(C)C(=O)c1ccccc1` (stereo not given), the TGI in [1], in [3], in test [4], in test [5], in [6] and in test [7] was > 100 µM each time. Also, the TGI in test [8], in test [9] and in test [10] was > 100 µM each time.
For the compound `CC1CC(N)=C(C#N)C1(C#N)C#N` (stereo not given), the TGI in [1], in [2], in test [3], in test [4], in test [5] and in [6] was > 100 µM each time. In addition, the TGI in test [7], in test [9] and in test [10] was > 100 µM each time.
